Test results as given in paper PMC6400584, “Activation mechanism of ATP-sensitive K^+ channels explored with real-time nucleotide binding” (eLife, 2019).

Key:
SUR1/Kir6.2-G334D = target: T1, SUR1/Kir6.2-G334D (Homo sapiens, UniProt Q09428); assay: Current activation in inside-out patches; type: biochemical
T1 construct: expressed in transfected cells; host or cells: HEK-293T
Experimental: (§1) Currents were recorded from inside-out membrane patches excised from transfected HEK-293T cells. Pipettes were pulled to a resistance of 1–5 MΩ and filled with an extracellular solution containing (in mM) 140 KCl, 1.2 MgCl2, 2.6 CaCl2, and 10 HEPES, pH 7.4 or 140 KCl, 1 EGTA, 10 HEPES, pH 7.3. The intracellular (bath) solutions contained either (in mM) 107 KCl, 2 MgCl2, 1 CaCl2, 10 EGTA, and 10 HEPES, pH 7.2 for experiments showing nucleotide-dependent activation or 140 KCl, 1 EDTA, 1 EGTA, 10 HEPES pH 7.3 for experiments showing nucleotide-dependent inhibition. Nucleotides were added as indicated. Patches were perfused with an 8-channel µFlow perfusion system. Data were acquired at a holding potential of −60 mV using an Axopatch 200B amplifier and Digidata 1322A digitizer with pClamp 9.0 software (Molecular Devices). Currents were digitized at 10 kHz and low-pass filtered at 1 kHz. KATP channels run down in excised patches (reviewed by Proks et al.) ([Proks et al., 2016]). For inhibitory concentration-response relationships, rundown was corrected by alternating test nucleotide solutions with nucleotide-free (control) solutions and expressing the test currents as a fraction of the average of the control currents before and after the test solution. […]

SUR1-T1397*/Kir6.2-G334D = test system: T2, SUR1-T1397*/Kir6.2-G334D; assay: Current activation in inside-out patches; type: biochemical, Homo sapiens
T2 construct: confirmed that >95% of SUR1-T1397* was full length; expressed in transfected cells; host or cells: HEK-293T
Experimental: as §1

[1] = target: SUR1-Y1353*/Kir6.2 (NBS2 of SUR1) (Homo sapiens, UniProt Q09428, Y1353X); assay: FRET binding of TNP-nucleotides to ANAP-labeled KATP in unroofed membrane fragments; settings: 10 mM unlabeled nucleotide
Experimental: Unroofed membranes were prepared using a modification of a protocol from the Heuser laboratory ([Heuser, 2000]; [Usukura et al., 2012]; [Zagotta et al., 2016]). Briefly, a coverslip containing adherent cells was removed from the cell culture medium and a small piece (0.5–1 cm) was broken off using jewelers forceps (#5) and washed in phosphate buffered saline (PBS, Thermo Fisher Scientific) diluted 1:3 in deionized water. Cells were exposed 3 × 10 s to a solution of 0.01% poly-L-lysine (Sigma) with intervening washes in diluted PBS to adhere them more firmly to the coverslips. The coverslip fragment was then placed in a 30 mm culture dish filled with 2–3 mL of 1/3X PBS and sonicated very briefly (~100 ms) using a probe sonicator (Vibra-cell; Newtown, CT), leaving behind adherent plasma membrane and sometimes additional cellular material. The unroofed fragments in our experiments were sometimes visible under bright-field illumination, a potential result of our modified ‘unroofing’ procedure. Morphologically, such cell fragments resemble the ‘partially unroofed’ cells identified by Usukura et al. ([Usukura et al., 2012]) Cells cultured on poly-D-lysine coated FluoroDishes were unroofed in diluted PBS with no additional poly-L-lysine treatment. This procedure yielded a higher percentage of completely unroofed plasma membranes (i.e. nearly invisible with brightfield illumination).
Unroofed membrane fragments were imaged directly on FluoroDishes (FD35-PDL-100, World Precision Instruments) or on broken coverslips placed in a FluoroDish (FD3510, World Precision instruments) using a Nikon TE2000-U microscope equipped with a 40x (S Fluor, 1.3 NA; Nikon, Kingston Upon Thames, UK) or 100x (Apo TIRF, 1.49 NA, Nikon) oil-immersion objective and low-fluorescence immersion oil (MOIL-30, Olympus; Southend-on-Sea, UK) or a 60x water immersion objective (Plan Apo VC, 1.20 NA, Nikon). ANAP was excited using a ThorLabs LED source (LED4D067) at 385 nm connected to the microscope using a liquid light guide in series with a 390/18 nm band-pass filter (MF390-18, ThorLabs; Newton, NJ) and MD416 dichroic (ThorLabs). For imaging, emitted light was filtered through a 479/40 nm band-pass filter (MF479-40, ThorLabs). GFP-tagged constructs were imaged using a similar setup with excitation at 490 nm, a 480/40 band-pass excitation filter (Chroma; Bellows Falls, VT), a DM505 dichroic mirror (Chroma), and 510 nm long-pass emission filter (Chroma). All images were acquired using a PIXIS 400B CCD camera (Princeton Instruments; Trenton, NJ). For spectroscopy, ANAP was excited as above, but emitted light was passed through a 400 nm long-pass filter (FEL0400, ThorLabs) and directed through the slit of an Isoplane 160 spectrometer (300 g/mm grating; Princeton Instruments) in series with the camera. The acquired images retained spatial information in the y-dimension, with the x-dimension replaced by wavelength (Figure 1—figure supplement 1a). Exposure times were typically 100 ms for brightfield images, 1–10 s for steady-state spectra and 1–5 s for time-course experiments.
To prevent accumulation of fluorescent nucleotides in the bath, FluoroDishes were perfused with either (in mM) 140 KCl, 20 NaCl, 10 MgCl2, 10 HEPES pH 7.2 with NaOH or 140 KCl, 20 NaCl, 1 EDTA, 10 HEPES pH 7.2 with NaOH using a peristaltic pump (Ismatec; Wertheim, Germany). Unroofed membranes were directly perfused with nucleotides using an 8-channel µFlow perfusion system (ALA Scientific Instruments; Farmingdale, NY). Solution change with the µFlow was rapid (τ = 0.73 s±0.02 s, n=5) as measured from single exponential fits to wash-out of 50 µM tetramethylrhodamine-5-maleimide (TMRM) after switching to a solution with no TMRM. TMRM was excited with a 565 nm LED with a D540/25X band-pass filter (Chroma) and DM565 dichroic mirror (Chroma). Emitted light was collected through a D605/55M band-pass filter (Chroma). […]

T1 sequence (Q09428 whole entry, stated change not applied): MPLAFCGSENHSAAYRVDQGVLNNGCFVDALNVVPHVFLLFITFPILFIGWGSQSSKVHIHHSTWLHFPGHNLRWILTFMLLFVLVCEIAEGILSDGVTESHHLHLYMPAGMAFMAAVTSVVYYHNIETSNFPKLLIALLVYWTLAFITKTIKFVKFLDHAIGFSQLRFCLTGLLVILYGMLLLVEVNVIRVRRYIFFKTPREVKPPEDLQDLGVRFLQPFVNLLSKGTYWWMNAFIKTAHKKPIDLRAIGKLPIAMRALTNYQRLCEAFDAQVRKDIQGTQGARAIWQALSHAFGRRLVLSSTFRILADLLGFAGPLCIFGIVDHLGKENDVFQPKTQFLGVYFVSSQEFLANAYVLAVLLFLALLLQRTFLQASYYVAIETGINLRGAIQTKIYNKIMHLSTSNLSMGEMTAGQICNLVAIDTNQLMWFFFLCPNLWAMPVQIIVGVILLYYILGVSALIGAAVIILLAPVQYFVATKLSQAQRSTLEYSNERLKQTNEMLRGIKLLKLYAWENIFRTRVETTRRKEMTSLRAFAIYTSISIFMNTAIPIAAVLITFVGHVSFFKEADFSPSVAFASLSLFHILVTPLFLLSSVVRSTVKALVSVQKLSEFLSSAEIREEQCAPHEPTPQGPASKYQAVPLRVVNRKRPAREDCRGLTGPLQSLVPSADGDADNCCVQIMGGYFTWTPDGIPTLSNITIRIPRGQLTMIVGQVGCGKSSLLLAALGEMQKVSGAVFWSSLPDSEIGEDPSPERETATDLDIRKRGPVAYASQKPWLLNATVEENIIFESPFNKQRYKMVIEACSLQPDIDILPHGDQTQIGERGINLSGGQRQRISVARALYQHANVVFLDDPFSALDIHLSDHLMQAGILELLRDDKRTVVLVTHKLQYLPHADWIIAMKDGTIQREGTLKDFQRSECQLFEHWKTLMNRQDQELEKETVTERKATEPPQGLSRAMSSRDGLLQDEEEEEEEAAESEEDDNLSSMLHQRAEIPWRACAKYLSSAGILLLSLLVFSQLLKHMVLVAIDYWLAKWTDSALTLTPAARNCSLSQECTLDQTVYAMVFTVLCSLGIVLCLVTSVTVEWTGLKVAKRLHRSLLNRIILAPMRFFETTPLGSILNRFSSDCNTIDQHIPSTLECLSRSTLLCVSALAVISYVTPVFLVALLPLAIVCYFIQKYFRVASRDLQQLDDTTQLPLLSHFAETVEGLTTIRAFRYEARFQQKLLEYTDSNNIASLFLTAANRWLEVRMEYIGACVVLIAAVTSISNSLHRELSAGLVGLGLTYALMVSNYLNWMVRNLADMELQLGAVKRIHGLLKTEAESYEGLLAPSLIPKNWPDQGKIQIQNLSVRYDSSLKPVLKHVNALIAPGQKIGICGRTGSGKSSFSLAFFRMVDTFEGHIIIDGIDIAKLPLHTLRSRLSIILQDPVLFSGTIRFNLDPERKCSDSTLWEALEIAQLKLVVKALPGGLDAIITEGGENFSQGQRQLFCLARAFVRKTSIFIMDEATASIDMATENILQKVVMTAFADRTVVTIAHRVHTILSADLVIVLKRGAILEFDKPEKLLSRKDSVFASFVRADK
T1 sequence (Q14654 whole entry G334D partner): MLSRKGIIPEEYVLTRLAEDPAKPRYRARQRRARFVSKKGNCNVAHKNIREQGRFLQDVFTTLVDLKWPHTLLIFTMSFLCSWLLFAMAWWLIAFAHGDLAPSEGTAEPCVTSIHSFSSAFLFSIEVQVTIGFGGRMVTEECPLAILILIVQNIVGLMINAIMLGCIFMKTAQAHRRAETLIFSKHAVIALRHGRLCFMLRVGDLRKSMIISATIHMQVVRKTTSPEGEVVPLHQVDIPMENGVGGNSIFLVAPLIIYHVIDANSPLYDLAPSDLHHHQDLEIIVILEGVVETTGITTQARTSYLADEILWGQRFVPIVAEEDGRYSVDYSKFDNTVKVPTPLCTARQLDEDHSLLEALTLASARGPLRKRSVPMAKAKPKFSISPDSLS

Compound: Nc1ncnc2c1ncn2[C@@H]1O[C@H](COP(=O)([O-])OP(=O)([O-])O)[C@@H](O)[C@H]1O.[Mg+2] [MgADP]
- effect on currents (SUR1/Kir6.2-G334D): activated
- EC50 (SUR1-T1397*/Kir6.2-G334D; Equation 5 fit to combined data): 38.6 µM
- EC50 (SUR1-T1397*/Kir6.2-G334D; mean ± SEM of fits of equation 5 to individual experiments): 44.4 ± 14.5 µM
- ANAP fluorescence intensity relative to the original peak [1]: 101 ± 2%
